Results published in patent US20100119599A1 (ARCHER PHARMACEUTICALS, INC., priority 2006, published 2010).
Like-named read-outs stand apart in the source and are kept apart here.

Assays:
Aβ1-40 = test: Measurement of Aβ1-40 in culture medium of 7W WT APP751 CHO cells by ELISA; format: cell-based, Chinese hamster; settings: for Aβ1-40 (% of control): CHO cells that overexpress APP751, zero = below the detection limit of the assay; for activity at 5 µM: Cricetulus griseus, 5 μM test compound, CHO cells stably transfected with human APP751, culture medium, ELISA, control DMSO;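 as to all read-outs here: 5 µM test compound but RI-coded compounds at 10 µM for 24 hours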
Protocol: (§1) Chinese hamster ovary (CHO) cells, stably transfected with human APP751 (7W WT APP751 CHO cells) were used. See, e.g., Koo and Squazzo, J. Biol. Chem., 269(26): 17386-17389, 1994. The cells were maintained in DMEM medium supplemented with 10% fetal bovine serum and 1× mixture of penicillin/streptomycin/fungizone/glutamine mixture (Cambrex, Md.) geneticin as selecting agent in 75 cm^2 cell culture flasks. The 7W WT APP751 CHO cells were plated in 96-well cell culture plates in quadruplicate, containing 200 microliters of culture medium, for 18 hours at 37° C. and 5% CO2. All test compounds were placed in dimethyl sulfoxide (DMSO) before being added to the cultured confluent 7W WT APP751 CHO cells to a concentration of the test compound of 5 μM. The culture medium was collected and diluted before being assayed by ELISAs for Aβ1-40 at 10-fold dilution and Aβ1-42 at 2-fold dilution, respectively. Concentrations of Aβ1-40 and Aβ1-42, expressed in pg/ml, were determined using commercially available ELISAs (Biosource, Calif.) in a colorimetric assay using labeled antibodies detected spectrophotometrically. For compounds with an identification beginning “RI”, the compounds were tested at a concentration of 10 μM for 24 hours. Control cells were treated with DMSO containing no compound. The percentage reduction in levels of Aβ1-40 and Aβ1-42 as compared to control cells not exposed to the test compounds are reported for the compounds in Tables 1, 2, and 3, supra. An entry of “0” indicates no detectable amount of Aβ1-40 or Aβ1-42 according to the assay conditions. The data in Tables 1, 2, and 3 may be rounded to the nearest 0.1%.

Aβ1-42 = test: Measurement of Aβ1-42 in culture medium of 7W WT APP751 CHO cells by ELISA; format: cell-based, Chinese hamster; settings: for Aβ1-42 (% of control): CHO cells that overexpress APP751, zero = below the detection limit of the assay; for activity at 5 µM: Cricetulus griseus, 5 μM test compound, CHO cells stably transfected with human APP751, culture medium, ELISA, control DMSO;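 as to Aβ1-42 (% of control): 5 µM test compound but RI-coded compounds at 10 µM for 24 hours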
Protocol: as §1

[1] = Table 1, 0 = no detectable amount
[2] = Table 1, 0 = no detectable amount, read-out: Aβ1-42 (% of control)

SMILES	Aβ1-40 (% of control) (Aβ1-40)	Aβ1-42 (% of control) (Aβ1-42)	activity at 5 µM (Aβ1-40; [1]) [%]	activity at 5 µM (Aβ1-42; [2]) [%]	also measured
CCc1cccc(NC(=O)CSC2=C(C#N)C(c3ccc(-c4ccccn4)s3)C(C(=O)Nc3ccccc3)=C(C)N2)c1 (centres unmarked) [RI_86]	32.8 % of control	21.8 % of control			
CCCCOC(=O)C1=C(C)NC2=C(C(=O)CC(C)(C)C2)C1c1cccc(Cl)c1Cl (centres unmarked) [ST013239, butyl 4-(2,3-dichlorophenyl)-2,7,7-trimethyl-5-oxo-1,4,6,7,8-pentahydroquinoline-3-carboxylate]			0	59.5	
CC1=C(C(=O)OCc2ccccc2)C(c2ccccc2I)C2=C(CC(C)(C)CC2=O)N1 (centres unmarked) [ST216858, phenylmethyl 4-(2-iodophenyl)-2,7,7-trimethyl-5-oxo-1,4,6,7,8-pentahydroquinoline-3-carboxylate]			30.1	61.5	
CCOC(=O)C1=C(C)NC2=C(C(=O)CC(c3ccccc3)C2)C1c1cc(OC)ccc1OC (centres unmarked) [ST015254, ethyl 4-(2,5-dimethoxyphenyl)-2-methyl-5-oxo-7-phenyl-1,4,6,7,8-pentahydroquinoline-3-carboxylate]			46.9	33.8	
CC1=C(C(=O)OC(C)(C)C)C(c2ccc(Cl)cc2)C(C#N)=C(SCC(=O)Nc2cccc(C)c2C)N1 (centres unmarked) [ST050424, tert-butyl 6-{[N-(2,3-dimethylphenyl)carbamoyl]methylthio}-4-(4-chlorophenyl)-5-cyano-2-methyl-1,4-dihydropyridine-3-carboxylate]	41.21 % of control	52.29 % of control			
COc1ccc(C2C(C(=O)OC3CCCC3)=C(C)NC3=C2C(=O)CCC3)cc1Br (centres unmarked) [ST013137, cyclopentyl 4-(3-bromo-4-methoxyphenyl)-2-methyl-5-oxo-1,4,6,7,8-pentahydroquinoline-3-carboxylate]			18.7	30	
CC1=C(C(=O)OCc2ccccc2)C(c2ccccc2Br)C2=C(CC(C)(C)CC2=O)N1 (centres unmarked) [ST216854, phenylmethyl 4-(2-bromophenyl)-2,7,7-trimethyl-5-oxo-1,4,6,7,8-pentahydroquinoline-3-carboxylate]			29.4	60	
CCCCCc1c2c(C)c(C(=O)OCC)cc-2cc2n1C(C)C(C)=C2C (centres unmarked) [ST020165, ethyl 3,6,7,8-tetramethyl-4-pentyl-6-hydropyrrolo[4,5-f]indolizine-2-carboxyla te, chloride]					activity at 5 µM (Aβ1-40; Table 3): 90.9%; activity at 5 µM (Aβ1-42; Table 3, read-out: Aβ-42 (% of control)): 23.1%
COC(=O)C1=C(C)NC(C)=C(C(=O)OC)C1c1cc(-c2ccc(Cl)cc2Cl)co1 [ST045410, methyl 4-[4-(2,4-dichlorophenyl)(2-furyl)]-5-(methoxycarbonyl)-2,6-dimethyl-1,4-dihydropyridine-3-carboxylate]	75.13 % of control	69.44 % of control			
CC1=C(C(=O)Nc2ccc(Cl)cc2)C(c2cccs2)C(C#N)=C(SCC(=O)Nc2ccc(C)c(Cl)c2)N1 (centres unmarked) [RI_60]	59.4 % of control	71.1 % of control			
COc1ccccc1C1C(C(=O)OC2CCCC2)=C(C)NC2=C1C(=O)CC(c1ccccc1)C2 (centres unmarked) [ST017176, cyclopentyl 4-(2-methoxyphenyl)-2-methyl-5-oxo-7-phenyl-1,4,6,7,8-pentahydroquinoline-3-carboxylate]			34.2	49.8	
COC(=O)C1=C(C)NC2=C(C(=O)CC(C)(C)C2)C1c1ccc(OCc2cccc(Cl)c2)c(OC)c1 (centres unmarked) [ST028592, methyl 4-{4-[(3-chlorophenyl)methoxy]-3-methoxyphenyl}-2,7,7-trimethyl-5-oxo-1,4,6,7,8-pentahydroquinoline-3-carboxylate]			28.3	97.1	
CC1=C(C(=O)Nc2ccccc2)C(c2ccsc2)C(C#N)=C(SCC(=O)Nc2ccc(C)cc2)N1 (centres unmarked) [RI_49]	40.9 % of control	37.7 % of control			
CC1=C(C(=O)OCCc2ccccc2)C(c2ccccc2OC(C)C)C2=C(CC(C)(C)CC2=O)N1 (centres unmarked) [ST015049, 2-phenylethyl 2,7,7-trimethyl-4-[2-(methylethoxy)phenyl]-5-oxo-1,4,6,7,8-pentahydroquinoline-3-carboxylate]			0	62.4	
COc1ccc(C2C(C(=O)OC3CCCCC3)=C(C)NC3=C2C(=O)CC(C)(C)C3)cc1O (centres unmarked) [ST052325, cyclohexyl 4-(3-hydroxy-4-methoxyphenyl)-2,7,7-trimethyl-5-oxo-1,4,6,7,8-pentahydroquinoline-3-carboxylate]			41.7	33	
COc1cc(/C=c2\sc3n(c2=O)C(N)=C(C#N)C(c2ccc(O)c(OC)c2)C=3C#N)ccc1O (centres unmarked) [ST025032, 5-amino-7-(4-hydroxy-3-methoxyphenyl)-2-[(4-hydroxy-3-methoxyphenyl)methylene]-3-oxo-4,7-dihydro-1,3-thiazolidino[3,2-a]pyridine-6,8-dicarbonitrile]	27.77 % of control	32.98 % of control			
COc1ccc(CCNC(=O)CSC2=C(C#N)C(c3cccs3)C(C(=O)Nc3ccccc3)=C(C)N2)cc1OC (centres unmarked) [RI_15]	74.9 % of control	41.2 % of control			
CCCc1ccc(NC(=O)CSC2=C(C#N)C(c3ccsc3)C(C(=O)Nc3ccccc3)=C(C)N2)cc1 (centres unmarked) [RI_52]	50.3 % of control	61.6 % of control			
COc1cccc(NC(=O)CSC2=C(C#N)C(c3ccsc3)C(C(=O)Nc3ccccc3)=C(C)N2)c1 (centres unmarked) [RI_51]	53.5 % of control	58 % of control			
CC1=C(C(=O)Nc2ccccc2C)C(c2cccs2)C(C#N)=C(SCC(=O)Nc2ccc(C)c(Cl)c2)N1 (centres unmarked) [ST050840, N-(3-chloro-4-methylphenyl)-2-{3-cyano-6-methyl-5-[N-(2-methylphenyl)carbamoyl]-4-(2-thienyl)(2-1,4-dihydropyridylthio)}acetamide]	52.3 % of control	38.84 % of control			
CC1=C(C(=O)OCCc2ccccc2)C(c2ccc(Cl)cc2)C2=C(CC(C)(C)CC2=O)N1 (centres unmarked) [ST015106, 2-phenylethyl 4-(4-chlorophenyl)-2,7,7-trimethyl-5-oxo-1,4,6,7,8-pentahydroquinoline-3-carboxylate]			13.2	0	
CCc1cccc(NC(=O)CSC2=C(C#N)C(c3ccsc3)C(C(=O)Nc3ccccc3)=C(C)N2)c1 (centres unmarked) [RI_44]	93.1 % of control	60.1 % of control			
CC1=C(C(=O)Nc2ccccc2)C(c2cccs2)C(C#N)=C(SCC(=O)Nc2ccc(F)cc2)N1 (centres unmarked) [RI_76]	46.2 % of control	54.6 % of control			
Cc1ccccc1/C=c1/sc2n(c1=O)C(N)=C(C#N)C(c1ccccc1C)C=2C#N (centres unmarked) [ST003359, 5-amino-7-(2-methylphenyl)-2-[(2-methylphenyl)methylene]-3-oxo-4,7-dihydro-1,3-thiazolidino[3,2-a]pyridine-6,8-dicarbonitrile]	56.16 % of control	98.22 % of control			
CC1=C(C(=O)OC2CCCC2)C(c2ccccc2Br)C2=C(CC(C)(C)CC2=O)N1 (centres unmarked) [ST013103, cyclopentyl 4-(2-bromophenyl)-2,7,7-trimethyl-5-oxo-1,4,6,7,8-pentahydroquinoline-3-carboxylate]			0	68.2	
CCOC(=O)C1=CN(c2cc(C)ccc2C)C=C(C(=O)OCC)C1c1cc(OC)c(OC)c(OC)c1 [ST052491, ethyl 1-(2,5-dimethylphenyl)-5-(ethoxycarbonyl)-4-(3,4,5-trimethoxyphenyl)-1,4-dihydropyridine-3-carboxylate]	70.29 % of control	28.35 % of control			
Cc1c(Cl)cccc1NC(=O)CSC1=C(C#N)C(c2cccs2)C2=C(CC(C)(C)CC2=O)N1 (centres unmarked) [ST051161, N-(3-chloro-2-methylphenyl)-2-(3-cyano-7,7-dimethyl-5-oxo-4-(2-thienyl)(2-1,4,6,7,8-pentahydroquinolylthio))acetamide]			13	25.4	
COC(=O)C1=CN(C2CC2)C=C(C(=O)OC)C1c1cc2c(cc1Cl)OCO2 [ST051458, methyl 4-(6-chloro(2H-benzo[d]1,3-dioxolan-5-yl))-1-cyclopropyl-5-(methoxycarbonyl)-1,4-dihydropyridine-3-carboxylate]	77.81 % of control	59.9 % of control			
